In patent US9216954B2, “Serine racemase inhibitor” (National University Corporation University of Toyama, priority 2012, dated 2015):

Tested on: not given
Assay: not given
Conditions: not given

First: O=C(CNC(=O)COc1ccc(Br)cc1)NCc1ccc(Br)cc1F [MM-29, N-[(4-Bromo-2-fluoro-benzylcarbamoyl)-methyl]-2-(4-bromo-phenoxy)-acetamide]
Second: Cc1ccccc1CNC(=O)CNC(=O)COc1ccc(Br)cc1 [MM-27, 2-(4-Bromo-phenoxy)-N-[(2-methyl-benzylcarbamoyl)-methyl]-acetamide]
The melting point of the first is higher: 179 to 180 °C for the first, 174 to 175 °C for the second.

Compared with COc1ccc(NC(=O)CNC(=O)COc2ccc(Br)cc2)cc1 [MM-11, 2-(4-Bromo-phenoxy)-N-[(4-methoxy-phenylcarbamoyl)-methyl]acetamide], COc1ccc(NC(=O)CNC(=O)COc2ccc(F)cc2)cc1 [MM-12, 2-(4-Fluoro-phenoxy)-N-[(4-methoxy-phenylcarbamoyl)-methyl]-acetamide] is lower in melting point: 190 to 191 °C for the first, 185 to 186 °C for the second.

First: O=C(CCc1ccccc1)NNC(=S)NC(=O)Cc1ccccc1 [LW-30, 2-Phenyl-N—[N′-(3-phenyl-propionyl)-hydrazinocarbothioyl]-acetamide]
Second: Cc1cccc(CC(=O)NNC(=S)NC(=O)Cc2ccccc2)c1 [LW-25, 2-Phenyl-N—[N′-(2-m-tolyl-acetyl)-hydrazinocarbothioyl]-acetamide]
The melting point of the first is lower: 88 to 90 °C for the first, 149 to 150 °C for the second.

Compared with CC(NC(=O)CNS(=O)(=O)Cc1ccccc1)c1ccccc1 (stereo not drawn) [DR-3, N-(1-Phenyl-ethyl)-2-phenylmethanesulfonylamino-acetamide], O=C(CNS(=O)(=O)Cc1ccccc1)Nc1cccc(Br)c1 [DR-12, N-(3-bromophenyl)-2-phenylmethanesulfonylaminoacetamide] is higher in melting point: 147 to 148 °C for the first, 215 to 216 °C for the second.

First: O=C(Cc1cc(F)cc(F)c1)NNC(=S)NC(=O)Cc1ccccc1 [LW-29, N-{N′-[2-(3,5-Difluoro-phenyl)-acetyl]-hydrazinocarbothioyl}-2-phenyl-acetamide]
Second: O=C(Cc1ccc(F)cc1)NNC(=S)NC(=O)Cc1ccccc1 [LW-22, N-{N′-[2-(4-Fluoro-phenyl)-acetyl]-hydrazinocarbothioyl}-2-phenyl-acetamide]
The melting point of the first is lower: 178 to 179 °C for the first, 182 to 183 °C for the second.

Compared with COc1ccc(NC(=O)CNC(=O)COc2ccccc2)c(C)c1 [MM-1, N-[(4-methoxy-2-methylphenylcarbamoyl)methyl]-2-phenoxyacetamide], COc1ccc(OCC(=O)NCC(=O)Nc2ccc(OC)cc2C)cc1 [MM-18, N-[(4-Methoxy-2-methyl-phenylcarbamoyl)-methyl]-2-(4-methoxy-phenoxy)-acetamide] is lower in melting point: 165 to 166 °C for the first, 143 to 144 °C for the second.

Compared with O=C(COc1ccc(Oc2ccccc2)cc1)NCC(=O)Nc1c(F)cccc1F [MM-21, N-[(2,6-Difluoro-phenylcarbamoyl)-methyl]-2-(4-phenoxy-phenoxy)-acetamide], O=C(COc1ccc(OCc2ccccc2)cc1)NCC(=O)Nc1c(F)cccc1F [MM-34, 2-(4-Benzyloxy-phenoxy)-N-[(2,6-difluoro-phenylcarbamoyl)-methyl]-acetamide] is lower in melting point: 164 to 165 °C for the first, 145 to 146 °C for the second.

First: Cc1cccc(CC(=O)NNC(=S)NC(=O)/C=C/c2cc(Br)cc(Br)c2)c1 [LW-24, 3-(3,5-Dibromo-phenyl)-N—[N′-(2-m-tolyl-acetyl)-hydrazinocarbothioyl]-acrylamide]
Second: COc1cccc(CC(=O)NNC(=S)NC(=O)/C=C/c2cc(Br)cc(Br)c2)c1 [LW-26, 3-(3,5-Dibromo-phenyl)-N-{N′-[2-(3-methoxy-phenyl)-acetyl]-hydrazinocarbothioyl}-acrylamide]
The melting point of the first is higher: 203 to 204 °C for the first, 202 to 203 °C for the second.

First: O=C(Cc1ccc(F)cc1)NNC(=S)NC(=O)Cc1ccc(F)cc1 [LW-32, 2-(4-Fluoro-phenyl)-N-{N′-[2-(4-fluoro-phenyl)-acetyl]-hydrazinocarbothioyl}-acetamide]
Second: O=C(/C=C/c1ccc(F)cc1)NC(=S)NNC(=O)c1cccs1 [LW-16, 3-(4-Fluoro-phenyl)-N—[N′-(thiophene-2-carbonyl)-hydrazinocarbothioyl]-acrylamide]
The melting point of the first is lower: 178 to 179 °C for the first, 217 to 218 °C for the second.

Compared with Cc1cccc(OCC(=O)NCC(=O)Nc2ccc(O)cc2)c1 [MM-37, N-[(4-hydroxyphenylcarbamoyl)methyl]-2-m-tolyloxyacetamide], O=C(COc1ccc(O)cc1)NCC(=O)Nc1c(F)cccc1F [MM-35, N-[(2,6-difluorophenylcarbamoyl)methyl]-2-(4-hydroxyphenoxy)acetamide] is higher in melting point: 186 to 187 °C for the first, 197 to 198 °C for the second.

Compared with O=C(/C=C/c1ccc(Cl)cc1)NC(=S)NNC(=O)Cc1cccs1 [LW-1, 3-(4-Chloro-phenyl)-N—[N′-(2-thiophen-2-yl-acetyl)-hydrazinocarbothioyl]-acrylamide], CC(C)c1ccc(/C=C/C(=O)NC(=S)NNC(=O)Cc2cccs2)cc1 [LW-8, 3-(4-Isopropyl-phenyl)-N—[N′-(2-thiophen-2-yl-acetyl)-hydrazinocarbothioyl]-acrylamide] is lower in melting point: 232 to 233 °C for the first, 201 to 202 °C for the second.

First: O=C(/C=C/c1c(F)cc(F)cc1F)NC(=S)NNC(=O)Cc1cccs1 [LW-11, N—[N′-(2-Thiophen-2-yl-acetyl)-hydrazinocarbothioyl]-3-(2,4,6-trifluoro-phenyl)-acrylamide]
Second: O=C(/C=C/c1c(Cl)cc(Cl)cc1Cl)NC(=S)NNC(=O)Cc1cccs1 [LW-2, N—[N′-(2-Thiophen-2-yl-acetyl)-hydrazinocarbothioyl]-3-(2,4,6-trichloro-phenyl)-acrylamide]
The melting point of the first is lower: 207 to 208 °C for the first, 219 to 220 °C for the second.

First: O=C(COc1ccc(Br)cc1)NCC(=O)Nc1cccc(Cl)c1 [MM-32, 2-(4-Bromo-phenoxy)-N-[(3-chloro-phenylcarbamoyl)-methyl]-acetamide]
Second: COc1ccc(NC(=O)CNS(=O)(=O)/C=C/c2ccc(C)cc2)cc1 [DR-32, N-(4-Methoxy-phenyl)-2-(2-p-tolyl-ethenesulfonylamino)-acetamide]
The melting point of the first is higher: 205 to 206 °C for the first, 145 to 146 °C for the second.

Compared with O=C(/C=C/c1ccc([N+](=O)[O-])cc1)NC(=S)NNC(=O)Cc1cccs1 [LW-3, 3-(4-Nitro-phenyl)-N—[N′-(2-thiophen-2-yl-acetyl)-hydrazinocarbothioyl]-acrylamide], Cc1ccc(S(=O)(=O)NCC(=O)Nc2c(F)cccc2F)cc1 [DR-2, N-(2,6-Difluoro-phenyl)-2-(toluene-4-sulfonylamino)-acetamide] is lower in melting point: 222 to 223 °C for the first, 129 to 130 °C for the second.

Target: T1, Recombinant SR (serine racemase) (Homo sapiens, UniProt Q9GZT4)
T1 construct: made in house; host or cells: Escherichia coli
T1 sequence (Q9GZT4 1-340): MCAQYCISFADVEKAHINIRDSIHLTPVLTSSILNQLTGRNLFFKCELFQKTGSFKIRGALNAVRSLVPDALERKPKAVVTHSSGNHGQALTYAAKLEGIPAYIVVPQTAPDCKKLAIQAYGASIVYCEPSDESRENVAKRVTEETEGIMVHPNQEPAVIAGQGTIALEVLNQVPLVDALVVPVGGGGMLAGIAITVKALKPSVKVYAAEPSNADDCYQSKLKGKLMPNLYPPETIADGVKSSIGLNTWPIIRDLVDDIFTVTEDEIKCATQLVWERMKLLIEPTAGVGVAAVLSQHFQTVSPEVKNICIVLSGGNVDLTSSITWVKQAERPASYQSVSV
Assay: Serine racemase (SR) enzyme activity measurement: L-serine racemization reaction, D-serine quantified via Dsd1/DNP colorimetry
Assay type: biochemical
Conditions: compound 0.3 mM (footnote ‡); value in parentheses = malonic acid (control) in the same run
Experimental: (1) L-Serine Racemization Reaction
(2) Quantitative Determination of D-serine
D-serine was quantitatively determined in accordance with the method proposed by Ito et al. (Analytical Biochemistry, 371: 167-172, 2007).
A solution including 25 μL of 100 mM HEPES (pH: 8.0), 20 μM PLP, and 2 μg of recombinant D-serine dehydratase 1 (Dsd1) was added to 25 μL of the reaction mixture (see (1)), and the mixture was reacted at 30° C. for 30 minutes.
In order to measure pyruvic acid produced from D-serine by Dsd1 using a colorimetric reaction, 50 μL of 0.05% DNP/2M HCl was added to 50 μL of the reaction solution, and the mixture was reacted at 30° C. for 5 minutes. After the addition of 100 μL of ethanol and 125 μL of 10 M NaOH, the mixture was sufficiently mixed, and reacted at room temperature for 10 minutes, and the absorbance at a wavelength of 515 nm was measured using a spectrophotometer.

In order of rising “% human (0. 3 mM)” value:
1. O=C(Nc1ccc(Cl)cc1Cl)Nc1ccccc1NS(=O)(=O)c1ccc(Cl)cc1 [ED-36, 4-Chloro-N-{2-[3-(2,4-dichloro-phenyl)-ureido]-phenyl}-benzenesulfonamide]  46%
2. Cc1ccc(/C=C/S(=O)(=O)Nc2ccccc2NC(=O)Nc2ccc(Cl)c(Cl)c2)cc1 [ED-37, 2-p-Tolyl-ethenesulfonic acid {2-[3-(3,4-dichloro-phenyl)-ureido]phenyl}-amide]  48%
3. O=C(Nc1ccc(Cl)c(Cl)c1)Nc1ccccc1NS(=O)(=O)c1ccc(Br)cc1 [ED-27, 4-Bromo-N-{2-[3-(3,4-dichloro-phenyl)-ureido]-phenyl}-benzenesulfonamide]  48%
4. O=C(O)CC(=O)O [malonic acid, reference compound]  51%
5. COc1ccc(S(=O)(=O)Nc2ccccc2NC(=O)Nc2ccc(Cl)c(Cl)c2)cc1 [ED-31, N-{2-[3-(3,4-Dichloro-phenyl)-ureido]-phenyl}-4-methoxy-benzenesulfonamide]  58%
